Source: patent US20210206758A1, “NAPHTHYRIDINES AS INTEGRIN ANTAGONISTS” (GlaxoSmithKline Intellectual Property Development Limited, priority 2016, published 2021)
Where “and” joins values, the source holds several entries; their conditions need not be identical. Equal values may be shown once.

Legend:
Format in all cases: cell-based
αvβ6 = target: T1, αvβ6 (Homo sapiens, UniProt P06756+P18564); test: Cell adhesion assay, K562-αvβ6 (LAP-b1); details: K562-αvβ6 cells, ligand LAP-b1, 2 mM MgCl2; for IC50: mean, read-out: αvβ6 pIC50 (mean affinity, cell Adhesion Assay) (converted)
T1 construct: expressed in transfected cells; host or cells: K562
Description: (§1) Reagents and methods utilised are as described [Ludbrook et al, Biochem. J. 2003, 369, 311 and Macdonald et al. ACS Med. Chem. Lett. 2014, 5, 1207-1212 for αvβ8 assay), with the following points of clarification. The following cell lines are used, with ligands in brackets: K562-αvβ3 (LAP-b1), K562-αvβ5 (Vitronectin), K562-αvβ6 (LAP-b1), K562-αvβ8 (LAP-b1), A549-αvβ1 (LAP-b1). The divalent cation used to facilitate adhesion is 2 mM MgCl2. Adhesion is quantified by cell labelling with the fluorescent dye BCECF-AM (Life Technologies), where cell suspensions at 3×10^6 cells/mL are incubated with 0.33 uL/mL of 30 mM BCECF-AM at 37° C. for 10 minutes, then 50 μL/well are dispensed into the 96-well assay plate. At the assay conclusion cells that adhered are lysed using 50 μL/well of 0.5% Triton X-100 in H2O to release fluorescence. Fluorescence intensity is detected using an Envision® plate reader (Perkin Elmer). For active antagonists in the assay, data is fitted to a 4 parameter logistic equation for IC50 determinations.

αvβ1 = target: T2, αvβ1 (Homo sapiens, UniProt P05556+P06756); test: Cell adhesion assay, A549-αvβ1 (LAP-b1); details: A549-αvβ1 cells, ligand LAP-b1, 2 mM MgCl2; for IC50: mean, read-out: αvβ1 pIC50 (mean affinity, cell Adhesion Assay) (converted)
T2 construct: host or cells: A549
Description: as §1

αvβ3 = target: T3, αvβ3 (Homo sapiens, UniProt P05106+P06756); test: Cell adhesion assay, K562-αvβ3 (LAP-b1); details: K562-αvβ3 cells, ligand LAP-b1, 2 mM MgCl2; for IC50: mean, read-out: αvβ3 pIC50 (mean affinity, cell Adhesion Assay) (converted)
T3 construct: expressed in transfected cells; host or cells: K562
Description: as §1

αvβ5 = target: T4, αvβ5 (Homo sapiens, UniProt P06756+P18084); test: Cell adhesion assay, K562-αvβ5 (Vitronectin); details: K562-αvβ5 cells, ligand Vitronectin, 2 mM MgCl2; for IC50: mean, read-out: αvβ5 pIC50 (mean affinity, cell Adhesion Assay) (converted)
T4 construct: expressed in transfected cells; host or cells: K562
Description: as §1

αvβ8 = target: T5, αvβ8 (Homo sapiens, UniProt P06756+P26012); test: Cell adhesion assay, K562-αvβ8 (LAP-b1); details: K562-αvβ8 cells, ligand LAP-b1, 2 mM MgCl2; for IC50: mean, read-out: αvβ8 pIC50 (mean affinity, cell Adhesion Assay) (converted)
T5 construct: expressed in transfected cells; host or cells: K562
Description: as §1

T2 sequence (P06756 31-889 limits assumed): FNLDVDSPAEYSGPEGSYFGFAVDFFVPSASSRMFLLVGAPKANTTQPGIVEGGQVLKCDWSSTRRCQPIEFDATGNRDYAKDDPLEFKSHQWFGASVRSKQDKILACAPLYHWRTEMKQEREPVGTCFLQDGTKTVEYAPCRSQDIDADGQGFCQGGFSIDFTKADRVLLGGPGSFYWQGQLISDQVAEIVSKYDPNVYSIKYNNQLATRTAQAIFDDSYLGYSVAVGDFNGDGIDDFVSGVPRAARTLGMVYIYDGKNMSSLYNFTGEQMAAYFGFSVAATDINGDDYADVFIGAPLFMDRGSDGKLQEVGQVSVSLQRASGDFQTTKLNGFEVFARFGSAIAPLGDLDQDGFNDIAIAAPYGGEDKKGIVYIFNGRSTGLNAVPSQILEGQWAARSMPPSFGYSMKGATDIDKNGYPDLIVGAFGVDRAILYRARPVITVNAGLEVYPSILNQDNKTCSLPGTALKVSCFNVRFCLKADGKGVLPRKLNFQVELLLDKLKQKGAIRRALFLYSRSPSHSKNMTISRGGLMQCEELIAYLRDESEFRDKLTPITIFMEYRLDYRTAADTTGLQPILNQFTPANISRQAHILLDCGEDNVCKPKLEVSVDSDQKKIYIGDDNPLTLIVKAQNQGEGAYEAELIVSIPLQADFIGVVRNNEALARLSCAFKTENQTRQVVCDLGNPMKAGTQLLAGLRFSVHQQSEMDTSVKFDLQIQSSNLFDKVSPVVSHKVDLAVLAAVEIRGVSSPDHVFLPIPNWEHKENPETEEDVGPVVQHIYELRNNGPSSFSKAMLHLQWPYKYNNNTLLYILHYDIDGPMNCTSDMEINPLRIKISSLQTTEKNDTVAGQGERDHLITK
T2 sequence (P06756 891-1048 partner limits assumed): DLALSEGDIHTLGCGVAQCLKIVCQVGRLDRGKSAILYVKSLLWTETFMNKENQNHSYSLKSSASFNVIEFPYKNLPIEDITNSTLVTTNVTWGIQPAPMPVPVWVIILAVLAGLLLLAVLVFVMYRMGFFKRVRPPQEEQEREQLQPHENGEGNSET
T2 sequence (P05556 21-798): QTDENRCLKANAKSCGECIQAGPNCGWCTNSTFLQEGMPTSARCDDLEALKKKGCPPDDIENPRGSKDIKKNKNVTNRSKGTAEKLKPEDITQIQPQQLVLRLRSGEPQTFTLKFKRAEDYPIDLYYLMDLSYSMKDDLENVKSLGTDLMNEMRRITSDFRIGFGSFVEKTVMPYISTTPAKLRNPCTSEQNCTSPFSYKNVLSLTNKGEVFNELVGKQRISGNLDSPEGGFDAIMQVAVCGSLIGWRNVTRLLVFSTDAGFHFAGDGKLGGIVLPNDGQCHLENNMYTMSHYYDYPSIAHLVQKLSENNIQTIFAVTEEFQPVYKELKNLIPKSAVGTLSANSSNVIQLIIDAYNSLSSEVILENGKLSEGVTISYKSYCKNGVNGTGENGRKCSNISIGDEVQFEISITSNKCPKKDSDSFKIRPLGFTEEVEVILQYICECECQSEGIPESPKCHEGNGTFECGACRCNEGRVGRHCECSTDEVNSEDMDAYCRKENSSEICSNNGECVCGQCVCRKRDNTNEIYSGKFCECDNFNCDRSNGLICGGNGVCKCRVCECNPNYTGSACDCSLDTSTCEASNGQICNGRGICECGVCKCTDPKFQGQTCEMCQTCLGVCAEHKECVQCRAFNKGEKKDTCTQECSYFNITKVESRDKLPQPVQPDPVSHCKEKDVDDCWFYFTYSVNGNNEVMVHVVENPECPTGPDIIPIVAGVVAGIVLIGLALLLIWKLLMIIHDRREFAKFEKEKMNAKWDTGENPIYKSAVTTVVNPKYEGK
T4 sequence (P06756 31-889 limits assumed): as the sequence (P06756 31-889 limits assumed) above
T4 sequence (P06756 891-1048 partner limits assumed): as the sequence (P06756 891-1048 partner limits assumed) above
T4 sequence (P18084 24-799): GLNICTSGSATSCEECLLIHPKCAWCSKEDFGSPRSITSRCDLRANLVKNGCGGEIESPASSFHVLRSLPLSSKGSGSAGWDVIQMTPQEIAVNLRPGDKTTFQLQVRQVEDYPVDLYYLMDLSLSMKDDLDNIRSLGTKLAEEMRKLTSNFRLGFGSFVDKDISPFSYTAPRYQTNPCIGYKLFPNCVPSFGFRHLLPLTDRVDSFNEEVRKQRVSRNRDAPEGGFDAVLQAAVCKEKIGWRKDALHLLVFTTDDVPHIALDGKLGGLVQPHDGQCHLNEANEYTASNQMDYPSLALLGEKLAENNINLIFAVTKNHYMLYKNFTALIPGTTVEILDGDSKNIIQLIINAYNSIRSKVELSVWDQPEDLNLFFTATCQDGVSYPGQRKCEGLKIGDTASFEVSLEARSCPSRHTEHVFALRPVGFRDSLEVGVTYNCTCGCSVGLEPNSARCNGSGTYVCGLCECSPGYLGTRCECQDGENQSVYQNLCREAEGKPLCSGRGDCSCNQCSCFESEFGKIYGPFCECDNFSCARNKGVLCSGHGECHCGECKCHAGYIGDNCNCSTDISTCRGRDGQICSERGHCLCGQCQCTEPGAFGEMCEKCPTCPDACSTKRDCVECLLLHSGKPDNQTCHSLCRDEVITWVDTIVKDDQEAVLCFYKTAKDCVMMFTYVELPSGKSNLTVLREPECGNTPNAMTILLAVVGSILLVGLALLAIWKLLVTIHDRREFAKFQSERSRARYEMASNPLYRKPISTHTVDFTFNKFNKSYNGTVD
T1 sequence (P06756 31-889 limits assumed): as the sequence (P06756 31-889 limits assumed) above
T1 sequence (P06756 891-1048 partner limits assumed): as the sequence (P06756 891-1048 partner limits assumed) above
T1 sequence (P18564 22-788): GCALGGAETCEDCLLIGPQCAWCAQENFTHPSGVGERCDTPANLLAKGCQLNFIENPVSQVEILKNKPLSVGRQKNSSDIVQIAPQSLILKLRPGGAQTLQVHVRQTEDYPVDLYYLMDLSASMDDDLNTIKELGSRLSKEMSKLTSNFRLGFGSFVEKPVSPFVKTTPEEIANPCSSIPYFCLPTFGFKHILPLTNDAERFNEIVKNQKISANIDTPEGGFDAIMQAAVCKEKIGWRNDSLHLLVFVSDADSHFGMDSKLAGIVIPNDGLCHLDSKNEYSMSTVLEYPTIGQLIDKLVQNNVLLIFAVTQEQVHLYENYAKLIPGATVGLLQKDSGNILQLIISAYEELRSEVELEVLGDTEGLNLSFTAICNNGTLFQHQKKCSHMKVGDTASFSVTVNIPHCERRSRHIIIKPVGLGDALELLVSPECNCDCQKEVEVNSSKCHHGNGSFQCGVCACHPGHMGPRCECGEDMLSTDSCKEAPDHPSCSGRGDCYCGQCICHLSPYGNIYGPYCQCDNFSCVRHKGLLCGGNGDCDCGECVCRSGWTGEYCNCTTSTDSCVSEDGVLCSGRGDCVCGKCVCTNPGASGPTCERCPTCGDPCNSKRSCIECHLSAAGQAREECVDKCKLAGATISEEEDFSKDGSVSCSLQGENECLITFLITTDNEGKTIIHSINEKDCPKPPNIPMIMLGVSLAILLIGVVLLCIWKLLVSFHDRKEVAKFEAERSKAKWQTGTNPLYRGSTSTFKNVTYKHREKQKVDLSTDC
T3 sequence (P06756 31-889 limits assumed): as the sequence (P06756 31-889 limits assumed) above
T3 sequence (P06756 891-1048 partner limits assumed): as the sequence (P06756 891-1048 partner limits assumed) above
T3 sequence (P05106 27-788): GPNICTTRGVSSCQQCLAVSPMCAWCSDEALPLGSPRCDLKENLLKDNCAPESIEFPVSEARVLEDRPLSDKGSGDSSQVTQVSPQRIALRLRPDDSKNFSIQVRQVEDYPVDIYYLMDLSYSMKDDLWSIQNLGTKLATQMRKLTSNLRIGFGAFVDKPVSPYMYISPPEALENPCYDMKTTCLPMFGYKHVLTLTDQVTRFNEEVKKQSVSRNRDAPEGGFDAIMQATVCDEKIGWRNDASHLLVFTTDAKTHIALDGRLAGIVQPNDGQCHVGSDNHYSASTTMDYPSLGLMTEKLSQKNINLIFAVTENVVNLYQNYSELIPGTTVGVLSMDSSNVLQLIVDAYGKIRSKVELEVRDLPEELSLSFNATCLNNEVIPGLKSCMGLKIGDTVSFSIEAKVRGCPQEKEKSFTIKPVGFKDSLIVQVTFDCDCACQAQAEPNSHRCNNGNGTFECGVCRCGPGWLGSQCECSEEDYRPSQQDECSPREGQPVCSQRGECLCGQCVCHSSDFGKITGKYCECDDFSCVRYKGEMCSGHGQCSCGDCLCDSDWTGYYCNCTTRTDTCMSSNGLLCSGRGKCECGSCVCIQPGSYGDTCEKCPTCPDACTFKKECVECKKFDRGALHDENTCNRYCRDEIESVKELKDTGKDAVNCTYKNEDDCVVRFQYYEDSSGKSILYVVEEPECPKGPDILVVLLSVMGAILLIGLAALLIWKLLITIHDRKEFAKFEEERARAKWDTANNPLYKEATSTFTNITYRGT

Row | IC50 (αvβ6) | IC50 (αvβ1) | IC50 (αvβ3) | IC50 (αvβ5) | IC50 (αvβ8) | SMILES | αvβ1 pIC50 (mean affinity, cell Adhesion Assay) (αvβ1) | αvβ3 pIC50 (mean affinity, cell Adhesion Assay) (αvβ3) | αvβ5 pIC50 (mean affinity, cell Adhesion Assay) (αvβ5) | αvβ6 pIC50 (mean affinity, cell Adhesion Assay) (αvβ6) | αvβ8 pIC50 (mean affinity, cell Adhesion Assay) (αvβ8)
1 | 12.6 nM | 398 nM | 63.1 nM | 79.4 nM | 20 nM | O=C(O)C[C@H](CN1CC[C@@](F)(CCc2ccc3c(n2)NCCC3)C1)c1cccc(C2CCOC2)c1 (single isomer, unassigned; isomer 1) [Example 10] | – | – | – | – | –
2 | – | 126 nM | – | 126 nM | – | O=C(O)C[C@H](CN1CC[C@@](F)(CCc2ccc3c(n2)NCCC3)C1)c1cccc(C2CCOC2)c1 (single isomer, unassigned; isomer 2) [Example 11] | – | – | – | – | –
3 | 25.1 nM | 2000 nM | 79.4 nM | 251 nM | 100 nM | O=C(O)C[C@H](CN1CC[C@@](F)(CCc2ccc3c(n2)NCCC3)C1)c1cccc(OC[C@H]2CCCO2)c1 [Example 1, (S)-4-((S)-3-Fluoro-3-(2-(5,6,7,8-tetrahydro-1,8-naphthyridin-2-yl)ethyl)pyrrolidin-1-yl)-3-(3-(((R)-tetrahydrofuran-2-yl)methoxy)phenyl)butanoic acid] | – | – | – | – | –
4 | 15.8 nM | 1000 nM | – | 100 nM | 100 nM | O=C(O)C[C@H](CN1CC[C@@](F)(CCc2ccc3c(n2)NCCC3)C1)c1cccc(OC[C@@H]2CCCO2)c1 [Example 2, (S)-4-((S)-3-Fluoro-3-(2-(5,6,7,8-tetrahydro-1,8-naphthyridin-2-yl)ethyl)pyrrolidin-1-yl)-3-(3-(((S)-tetrahydrofuran-2-yl)methoxy)phenyl)butanoic acid] | – | – | – | – | –
5 | 12.6 nM | 200 nM | 31.6 nM | 25.1 nM | 31.6 nM | CO[C@H](C)COc1cccc([C@H](CC(=O)O)CN2CC[C@@](F)(CCc3ccc4c(n3)NCCC4)C2)c1 [Example 5] | – | – | – | – | –
6 | 12.6 nM | 126 nM | 63.1 nM | 316 nM | 39.8 nM | CO[C@@H](C)COc1cccc([C@H](CC(=O)O)CN2CC[C@@](F)(CCc3ccc4c(n3)NCCC4)C2)c1 [Example 6] | – | – | – | – | –
7 | 20 nM | 63.1 nM | 79.4 nM | 63.1 nM | 50.1 nM | COCC(C)(C)Oc1cccc([C@H](CC(=O)O)CN2CC[C@@](F)(CCc3ccc4c(n3)NCCC4)C2)c1 [Example 7, (S)-4-((S)-3-Fluoro-3-(2-(5,6,7,8-tetrahydro-1,8-naphthyridin-2-yl)ethyl)pyrrolidin-1-yl)-3-(3-((1-methoxy-2-methylpropan-2-yl)oxy)phenyl)butanoic acid] | – | – | – | – | –
8 | 12.6 nM | 398 nM | 100 nM | 63.1 nM | 31.6 nM | O=C(O)C[C@H](CN1CC[C@@](F)(CCc2ccc3c(n2)NCCC3)C1)c1cccc(OC2COC2)c1 [Example 8, (S)-4-((S)-3-Fluoro-3-(2-(5,6,7,8-tetrahydro-1,8-naphthyridin-2-yl)ethyl)pyrrolidin-1-yl)-3-(3-(oxetan-3-yloxy)phenyl)butanoic acid] | – | – | – | – | –
9 | 10 nM | 1000 nM | – | – | 50.1 nM | COCCOc1cc(OCCOC)cc([C@H](CC(=O)O)CN2CC[C@@](F)(CCc3ccc4c(n3)NCCC4)C2)c1 [Example 9, (S)-3-(3,5-Bis(2-methoxyethoxy)phenyl)-4-((S)-3-fluoro-3-(2-(5,6,7,8-tetrahydro-1,8-naphthyridin-2-yl)ethyl)pyrrolidin-1-yl)butanoic acid] | – | – | – | – | –
10 | 15.8 nM | 251 nM | 63.1 nM | 31.6 nM | 25.1 nM | O=C(O)C[C@H](CN1CC[C@@](F)(CCc2ccc3c(n2)NCCC3)C1)c1cccc(OCC2COC2)c1 [Example 12, (S)-4-((S)-3-Fluoro-3-(2-(5,6,7,8-tetrahydro-1,8-naphthyridin-2-yl)ethyl)pyrrolidin-1-yl)-3-(3-(oxetan-3-ylmethoxy)phenyl)butanoic acid] | – | – | – | – | –
11 | 10 nM | 126 nM | 79.4 nM | 100 nM | 31.6 nM | COCCOc1cc(OCCF)cc(C(CC(=O)O)CN2CC[C@@](F)(CCc3ccc4c(n3)NCCC4)C2)c1 (stereo partly drawn) [Example 13, 4-((S)-3-Fluoro-3-(2-(5,6,7,8-tetrahydro-1,8-naphthyridin-2-yl)ethyl)pyrrolidin-1-yl)-3-(3-(2-fluoroethoxy)-5-(2-methoxyethoxy)phenyl)butanoic acid] | – | – | – | – | –
12 | 25.1 nM | 2000 nM | 501 nM | 25.1 nM | 158 nM | COCCOc1ccc(F)c(C(CC(=O)O)CN2CC[C@@](F)(CCc3ccc4c(n3)NCCC4)C2)c1 (stereo partly drawn) [Example 14, 4-((S)-3-Fluoro-3-(2-(5,6,7,8-tetrahydro-1,8-naphthyridin-2-yl)ethyl)pyrrolidin-1-yl)-3-(2-fluoro-5-(2-methoxyethoxy)phenyl)butanoic acid] | – | – | – | – | –
13 | 10 nM and 12.6 nM | 316 nM | 20 nM | 39.8 nM | – | O=C(O)C[C@H](CN1CC[C@@](F)(CCc2ccc3c(n2)NCCC3)C1)c1cccc(OC2CCOCC2)c1 [Example 15, (S)-4-((S)-3-Fluoro-3-(2-(5,6,7,8-tetrahydro-1,8-naphthyridin-2-yl)ethyl)pyrrolidin-1-yl)-3-(3-((tetrahydro-2H-pyran-4-yl)oxy)phenyl)butanoic acid] | – | – | – | – | –
14 | – | – | – | – | – | O=C(O)CC(O)(CC(=O)O)C(=O)O.O=C(O)C[C@H](CN1CC[C@@](F)(CCc2ccc3c(n2)NCCC3)C1)c1cccc(O[C@@H]2CCOC2)c1 [Example 16, (S)-4-((S)-3-Fluoro-3-(2-(5,6,7,8-tetrahydro-1,8-naphthyridin-2-yl)ethyl)pyrrolidin-1-yl)-3-(3-(((R)-tetrahydrofuran-3-yl)oxy)phenyl)butanoic acid (1:1) citrate salt] | 6.8 | 7.6 | 7.4 | – | –
15 | – | – | – | – | – | O=C(O)/C=C\C(=O)O.O=C(O)C[C@H](CN1CC[C@@](F)(CCc2ccc3c(n2)NCCC3)C1)c1cccc(O[C@@H]2CCOC2)c1 [Example 17, (S)-4-((S)-3-Fluoro-3-(2-(5,6,7,8-tetrahydro-1,8-naphthyridin-2-yl)ethyl)pyrrolidin-1-yl)-3-(3-(((R)-tetrahydrofuran-3-yl)oxy)phenyl)butanoic acid (1:1) maleate salt] | 6.9 | 7.3 | 8.1 | 8.2 | 7.7
16 | – | – | – | – | – | O=C(O)CC(O)(CC(=O)O)C(=O)O.O=C(O)C[C@H](CN1CC[C@@](F)(CCc2ccc3c(n2)NCCC3)C1)c1cccc(O[C@H]2CCOC2)c1 [Example 18, (S)-4-((S)-3-Fluoro-3-(2-(5,6,7,8-tetrahydro-1,8-naphthyridin-2-yl)ethyl)pyrrolidin-1-yl)-3-(3-(((S)-tetrahydrofuran-3-yl)oxy)phenyl)butanoic acid (1:1) citrate salt] | 6.4 | 7.3 | 7.5 | 8.3 | 7.7

Row | SMILES | IC50 (αvβ6) | IC50 (αvβ1) | IC50 (αvβ3) | IC50 (αvβ5) | IC50 (αvβ8) | αvβ1 pIC50 (mean affinity, cell Adhesion Assay) (αvβ1) | αvβ3 pIC50 (mean affinity, cell Adhesion Assay) (αvβ3) | αvβ5 pIC50 (mean affinity, cell Adhesion Assay) (αvβ5) | αvβ6 pIC50 (mean affinity, cell Adhesion Assay) (αvβ6) | αvβ8 pIC50 (mean affinity, cell Adhesion Assay) (αvβ8)
17 | O=C(O)C[C@H](CN1CC[C@@](F)(CCc2ccc3c(n2)NCCC3)C1)c1cccc(O[C@@H]2CCOC2)c1 [Example 3, (S)-4-((S)-3-Fluoro-3-(2-(5,6,7,8-tetrahydro-1,8-naphthyridin-2-yl)ethyl)pyrrolidin-1-yl)-3-(3-(((R)-tetrahydrofuran-3-yl)oxy)phenyl)butanoic acid] | 5.01 nM | 200 nM | 100 nM | 39.8 nM | 50.1 nM | – | – | – | – | –
18 | O=C(O)C[C@H](CN1CC[C@@](F)(CCc2ccc3c(n2)NCCC3)C1)c1cccc(O[C@H]2CCOC2)c1 [Example 4, (S)-4-((S)-3-Fluoro-3-(2-(5,6,7,8-tetrahydro-1,8-naphthyridin-2-yl)ethyl)pyrrolidin-1-yl)-3-(3-(((S)-tetrahydrofuran-3-yl)oxy)phenyl)butanoic acid] | 5.01 nM | 100 nM | 50.1 nM | 79.4 nM | 31.6 nM | – | – | – | – | –
